The source made the active and inactive calls.
Assays:
[1] = target: T1, Replicative DNA helicase DnaB (Mycobacterium tuberculosis, UniProt P9WMR3); assay: DnaB intein splicing inhibitors, dose response, biochemical, cell-free fluorescence (AID 449749); type: functional
T1 sequence (P9WMR3 whole entry): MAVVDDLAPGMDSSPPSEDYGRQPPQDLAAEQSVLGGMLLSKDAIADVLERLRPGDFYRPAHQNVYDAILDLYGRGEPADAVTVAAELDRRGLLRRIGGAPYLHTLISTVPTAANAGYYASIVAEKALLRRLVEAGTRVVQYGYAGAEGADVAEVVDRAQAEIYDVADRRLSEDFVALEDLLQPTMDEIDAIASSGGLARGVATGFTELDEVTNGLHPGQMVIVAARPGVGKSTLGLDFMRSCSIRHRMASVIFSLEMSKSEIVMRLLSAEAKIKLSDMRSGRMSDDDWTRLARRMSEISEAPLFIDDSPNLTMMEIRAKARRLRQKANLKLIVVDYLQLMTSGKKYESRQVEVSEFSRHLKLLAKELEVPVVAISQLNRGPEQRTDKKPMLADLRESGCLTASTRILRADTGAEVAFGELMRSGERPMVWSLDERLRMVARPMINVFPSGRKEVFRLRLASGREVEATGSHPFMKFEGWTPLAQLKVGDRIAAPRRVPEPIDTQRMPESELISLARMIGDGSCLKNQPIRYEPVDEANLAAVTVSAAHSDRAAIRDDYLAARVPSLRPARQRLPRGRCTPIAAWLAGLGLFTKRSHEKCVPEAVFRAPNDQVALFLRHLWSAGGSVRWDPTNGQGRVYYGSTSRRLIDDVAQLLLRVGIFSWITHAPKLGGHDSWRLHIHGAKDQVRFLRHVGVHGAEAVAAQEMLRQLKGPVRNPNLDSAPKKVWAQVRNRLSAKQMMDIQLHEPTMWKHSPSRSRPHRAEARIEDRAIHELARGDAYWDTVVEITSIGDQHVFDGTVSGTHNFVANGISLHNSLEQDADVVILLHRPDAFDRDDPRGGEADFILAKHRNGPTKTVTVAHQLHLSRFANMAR

[2] = target: T2, Protein RecA (Mycobacterium tuberculosis, UniProt P9WHJ3); assay: Fluorescence Cell-Free Homogeneous Dose Retest to Identify Inhibitors of RecA-Intein Splicing Activity. [Related pubchem assays (depositor defined):AID2097, AID2223, AID489010, AID492950]; type: functional
T2 sequence (P9WHJ3 whole entry): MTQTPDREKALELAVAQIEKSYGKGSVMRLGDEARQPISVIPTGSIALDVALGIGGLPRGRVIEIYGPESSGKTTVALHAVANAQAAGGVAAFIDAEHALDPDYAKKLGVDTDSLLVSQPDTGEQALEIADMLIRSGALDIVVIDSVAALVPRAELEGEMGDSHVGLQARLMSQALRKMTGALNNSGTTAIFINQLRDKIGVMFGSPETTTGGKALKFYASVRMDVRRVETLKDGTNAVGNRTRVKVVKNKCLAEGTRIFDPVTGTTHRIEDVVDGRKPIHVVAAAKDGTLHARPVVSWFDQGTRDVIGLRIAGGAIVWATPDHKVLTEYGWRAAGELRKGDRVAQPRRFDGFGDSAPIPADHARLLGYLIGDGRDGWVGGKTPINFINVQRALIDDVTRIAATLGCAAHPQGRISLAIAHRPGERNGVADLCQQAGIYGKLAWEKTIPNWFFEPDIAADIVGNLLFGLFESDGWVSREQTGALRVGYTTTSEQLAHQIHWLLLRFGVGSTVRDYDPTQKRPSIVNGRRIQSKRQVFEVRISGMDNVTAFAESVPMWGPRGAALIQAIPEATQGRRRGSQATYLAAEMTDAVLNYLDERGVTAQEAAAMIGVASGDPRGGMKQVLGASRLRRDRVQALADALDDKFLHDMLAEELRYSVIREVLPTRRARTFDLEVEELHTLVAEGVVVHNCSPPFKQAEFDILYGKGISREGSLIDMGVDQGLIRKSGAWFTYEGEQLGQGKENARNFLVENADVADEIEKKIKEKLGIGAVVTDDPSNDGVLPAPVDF

[3] = target: Cytochrome P450 2D6 (Homo sapiens, UniProt P10635);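 further: CYP2D6 member of a cytochrome P450 panel assay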
[4] = tested on: Streptococcus sp. 'group A'; assay: growth inhibition of control SK(-) GAS strain, dose response, counter-screen for streptokinase expression inhibitor project, luminescence, kanamycin, BacTiterGlo, confirmation (AID 1900); type: functional, organism-based
[5] = tested on: Streptococcus; assay: Group A Streptococcus viability loss, dose response, counter-screen for streptokinase expression inhibitor project, luminescence, BacTiterGlo (AID 1915); type: functional, organism-based;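 further: potency for reduction of bacterial viability or growth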
[6] = target: T3, Streptokinase A (Streptococcus pyogenes serotype M1, UniProt P10520); assay: S. pyogenes streptokinase expression inhibitors, potency, dose response, plasminogen activation absorbance, OD405 (AID 1914); type: functional, Streptococcus pyogenes M1 GAS;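 further: secreted streptokinase activity via plasminogen activation per viability signal from cell pellet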
T3 sequence (P10520 whole entry): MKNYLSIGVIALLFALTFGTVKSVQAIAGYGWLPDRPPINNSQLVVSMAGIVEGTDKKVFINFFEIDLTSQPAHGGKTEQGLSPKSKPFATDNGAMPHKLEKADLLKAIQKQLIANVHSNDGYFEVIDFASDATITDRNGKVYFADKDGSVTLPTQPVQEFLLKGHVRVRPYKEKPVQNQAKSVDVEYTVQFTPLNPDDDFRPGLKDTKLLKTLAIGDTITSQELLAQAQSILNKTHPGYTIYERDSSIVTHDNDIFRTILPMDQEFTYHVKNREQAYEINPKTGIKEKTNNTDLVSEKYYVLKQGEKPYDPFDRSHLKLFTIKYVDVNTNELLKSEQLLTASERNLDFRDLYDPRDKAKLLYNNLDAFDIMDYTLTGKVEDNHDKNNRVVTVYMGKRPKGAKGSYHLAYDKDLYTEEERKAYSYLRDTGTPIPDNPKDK

[7] = target: Cytochrome P450 2C9 (Homo sapiens, UniProt P11712)
[8] = tested on: INS1; assay: beta cell apoptosis inhibitors, cytokine rescue, dose response, luminescence, retest (AID 449756); type: functional, cell-based; conditions: Rattus norvegicus;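 further: cell death triggered by IL-1 beta plus TNF-alpha plus IFN-gamma mixture; protective hits raise ATP signal compared with cytokine alone wells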
[9] = Luminescence Cell-Based Dose Retest to Confirm Inhibitors of Cancer Stem Cells. [Related pubchem assays (depositor defined):AID2717, AID2721]; type: functional; conditions: Homo sapiens
[10] = target: T4, Cytochrome P450 1A2 (Homo sapiens, UniProt P05177);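 further: PubChem cytochrome P450 panel assay, CYP1A2 panel member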
T4 sequence (P05177 whole entry): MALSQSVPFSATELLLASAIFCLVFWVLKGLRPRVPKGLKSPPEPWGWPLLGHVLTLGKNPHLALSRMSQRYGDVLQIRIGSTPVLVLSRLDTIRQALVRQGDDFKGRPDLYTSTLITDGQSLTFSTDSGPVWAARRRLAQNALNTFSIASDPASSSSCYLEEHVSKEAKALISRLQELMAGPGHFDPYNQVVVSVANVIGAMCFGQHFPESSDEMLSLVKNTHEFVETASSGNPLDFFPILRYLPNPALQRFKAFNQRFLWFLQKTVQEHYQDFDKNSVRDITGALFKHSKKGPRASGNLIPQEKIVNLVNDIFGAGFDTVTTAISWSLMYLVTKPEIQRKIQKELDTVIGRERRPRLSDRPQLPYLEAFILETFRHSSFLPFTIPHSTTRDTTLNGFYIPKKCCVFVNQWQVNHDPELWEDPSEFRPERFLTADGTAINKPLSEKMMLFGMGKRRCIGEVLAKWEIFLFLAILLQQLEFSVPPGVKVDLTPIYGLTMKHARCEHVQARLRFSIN

[11] = target: Cytochrome P450 3A4 (Homo sapiens, UniProt P08684);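 further: CYP3A4 tested as one member of a cytochrome P450 panel screen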
[12] = target: T5, RNA-binding protein pos-1 (Caenorhabditis elegans, UniProt G5EF15); assay: inhibitors of POS-1/mex-3 RNA binding, dose response, biochemical, fluorescence polarization (AID 1964);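 further: purified POS-1 fused to maltose binding protein made in E. coli; potency of compounds blocking POS-1 binding to fluorescent RNA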
T5 sequence (G5EF15 whole entry): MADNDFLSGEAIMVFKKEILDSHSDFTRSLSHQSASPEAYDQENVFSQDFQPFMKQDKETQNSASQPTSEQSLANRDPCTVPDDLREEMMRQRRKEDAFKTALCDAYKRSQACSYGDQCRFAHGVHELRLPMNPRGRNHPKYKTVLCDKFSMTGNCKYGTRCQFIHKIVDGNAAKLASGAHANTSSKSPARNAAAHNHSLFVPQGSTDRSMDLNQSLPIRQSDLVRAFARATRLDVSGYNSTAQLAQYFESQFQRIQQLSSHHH

[13] = target: Cytochrome P450 2C19 (Homo sapiens, UniProt P33261); assay: Cytochrome panel assay with activity outcomes. Panel member name: p450-cyp2c19 Compounds with AC50 equal or less than 10 uM are considered active; type: functional; conditions: read-out: AC50
[14] = target: T6, Rac GTPase-activating protein 1 (Homo sapiens, UniProt Q9H0H5); assay: MgcRacGAP GTPase-activating activity inhibitors, confirmation, biochemical, ADP Hunter fluorescence, primary and confirmatory (AID 624330); type: functional
T6 sequence (Q9H0H5 whole entry): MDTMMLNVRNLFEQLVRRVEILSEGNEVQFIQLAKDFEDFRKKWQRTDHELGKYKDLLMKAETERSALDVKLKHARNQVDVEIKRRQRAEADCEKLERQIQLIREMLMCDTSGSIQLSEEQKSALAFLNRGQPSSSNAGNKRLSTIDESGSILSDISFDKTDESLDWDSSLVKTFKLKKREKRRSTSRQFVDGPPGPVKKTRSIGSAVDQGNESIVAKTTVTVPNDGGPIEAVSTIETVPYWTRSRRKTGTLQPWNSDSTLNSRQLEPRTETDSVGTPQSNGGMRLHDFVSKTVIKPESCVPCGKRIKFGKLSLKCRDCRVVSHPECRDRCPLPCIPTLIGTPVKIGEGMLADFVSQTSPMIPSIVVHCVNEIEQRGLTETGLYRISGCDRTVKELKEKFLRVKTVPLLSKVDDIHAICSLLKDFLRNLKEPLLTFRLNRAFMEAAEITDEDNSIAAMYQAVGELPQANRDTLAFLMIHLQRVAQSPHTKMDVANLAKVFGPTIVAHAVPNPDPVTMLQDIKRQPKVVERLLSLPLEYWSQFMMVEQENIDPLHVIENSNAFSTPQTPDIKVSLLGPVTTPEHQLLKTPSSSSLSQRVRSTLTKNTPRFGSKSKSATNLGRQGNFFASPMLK

Cytochrome P450 2D6, sequence (P10635 whole entry): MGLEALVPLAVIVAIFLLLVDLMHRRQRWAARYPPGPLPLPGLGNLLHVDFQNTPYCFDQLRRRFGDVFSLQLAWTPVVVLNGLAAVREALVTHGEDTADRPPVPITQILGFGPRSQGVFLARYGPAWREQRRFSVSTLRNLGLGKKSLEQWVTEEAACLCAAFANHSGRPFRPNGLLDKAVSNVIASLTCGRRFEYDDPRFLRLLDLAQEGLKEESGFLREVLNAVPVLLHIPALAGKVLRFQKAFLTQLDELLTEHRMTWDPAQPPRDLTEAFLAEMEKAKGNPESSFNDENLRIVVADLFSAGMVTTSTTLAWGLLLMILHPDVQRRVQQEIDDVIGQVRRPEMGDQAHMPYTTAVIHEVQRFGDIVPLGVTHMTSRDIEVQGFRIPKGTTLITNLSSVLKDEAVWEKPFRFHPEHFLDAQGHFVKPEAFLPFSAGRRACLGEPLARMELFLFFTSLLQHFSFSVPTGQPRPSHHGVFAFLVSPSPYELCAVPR
Cytochrome P450 3A4, sequence (P08684 whole entry, the tested form may be a part): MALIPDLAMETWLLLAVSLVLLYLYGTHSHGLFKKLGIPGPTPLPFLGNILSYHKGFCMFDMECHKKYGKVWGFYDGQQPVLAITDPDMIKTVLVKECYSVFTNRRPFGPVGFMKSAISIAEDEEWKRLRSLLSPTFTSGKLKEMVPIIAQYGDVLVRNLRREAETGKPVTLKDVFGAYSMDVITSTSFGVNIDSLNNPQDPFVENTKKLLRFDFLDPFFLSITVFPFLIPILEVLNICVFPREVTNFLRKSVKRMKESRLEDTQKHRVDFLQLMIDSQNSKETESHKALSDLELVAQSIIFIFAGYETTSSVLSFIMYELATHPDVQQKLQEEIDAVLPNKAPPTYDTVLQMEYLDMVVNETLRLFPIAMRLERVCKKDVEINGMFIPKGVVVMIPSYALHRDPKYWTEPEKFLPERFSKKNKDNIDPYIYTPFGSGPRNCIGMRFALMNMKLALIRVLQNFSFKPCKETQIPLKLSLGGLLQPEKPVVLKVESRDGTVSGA
Cytochrome P450 2C9, sequence (P11712 whole entry): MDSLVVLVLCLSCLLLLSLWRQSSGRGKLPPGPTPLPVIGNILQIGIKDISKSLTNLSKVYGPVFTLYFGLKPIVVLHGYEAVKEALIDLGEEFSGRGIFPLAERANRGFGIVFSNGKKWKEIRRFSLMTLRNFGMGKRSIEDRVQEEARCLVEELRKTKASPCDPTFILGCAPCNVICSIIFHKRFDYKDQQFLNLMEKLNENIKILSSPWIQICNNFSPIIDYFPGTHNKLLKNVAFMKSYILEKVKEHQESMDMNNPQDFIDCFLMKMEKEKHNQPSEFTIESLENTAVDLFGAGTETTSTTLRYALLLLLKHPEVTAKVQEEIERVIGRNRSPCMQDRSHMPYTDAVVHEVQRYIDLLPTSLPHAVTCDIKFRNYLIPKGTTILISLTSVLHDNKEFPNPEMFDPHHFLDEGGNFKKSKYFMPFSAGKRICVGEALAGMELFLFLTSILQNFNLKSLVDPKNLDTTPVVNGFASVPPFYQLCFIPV
Cytochrome P450 2C19, sequence (P33261 whole entry): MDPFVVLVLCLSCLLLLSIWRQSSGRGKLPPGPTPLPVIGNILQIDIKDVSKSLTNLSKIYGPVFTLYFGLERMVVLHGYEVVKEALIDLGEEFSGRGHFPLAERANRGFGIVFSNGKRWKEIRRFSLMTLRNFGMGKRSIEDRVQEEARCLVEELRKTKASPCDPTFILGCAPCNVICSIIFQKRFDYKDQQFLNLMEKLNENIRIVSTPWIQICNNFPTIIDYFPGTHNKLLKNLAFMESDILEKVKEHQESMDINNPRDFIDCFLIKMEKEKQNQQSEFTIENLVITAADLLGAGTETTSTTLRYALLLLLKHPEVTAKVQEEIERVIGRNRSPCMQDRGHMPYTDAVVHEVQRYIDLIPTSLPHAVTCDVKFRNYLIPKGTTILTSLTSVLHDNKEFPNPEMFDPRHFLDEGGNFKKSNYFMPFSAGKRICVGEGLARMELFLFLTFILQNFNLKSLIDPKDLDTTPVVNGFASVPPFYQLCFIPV

SMILES | AC50 [1] | EC50 [2] | AC50 [3] | further results
CCOC(=O)Cc1c(O)oc2nnc(C)c-2c1C | > 380 µM (inactive) | 19.1 µM (active) | – | –
CC(CO)Nc1nc(SCc2ccccc2)nc2sc3c(c12)CCC3 (stereo not given) | – | – | 12.6 µM (inconclusive) | –
COc1ccc(C2CC(c3cccs3)=NN2C(=O)CSC2=NCCS2)cc1 (stereo not given) | 10.9 µM (active) | 5.31 µM (active) | – | EC50 [4]: 21.5 µM (active); EC50 [5]: > 150 µM (not active); EC50 [6]: > 150 µM (not active)
c1cc2cc(c1)C[n+]1ccc(c3ccccc31)NCc1ccc(cc1)CNc1cc[n+](c3ccccc13)C2 | – | – | 39.8 µM (inconclusive) | –
COc1ccc(C(=O)NCC(=O)OCc2cccc(Br)c2)cc1 | – | – | 15.8 µM (inconclusive) | –
O=C(OCc1nnc(-c2ccccc2)o1)c1ccc2c(c1)OCCO2 | – | – | 28.2 µM (inconclusive) | –
Cc1n[nH]c2c1C(c1c[nH]nc1-c1ccc(F)cc1)C(C#N)=C(N)O2 (stereo not given) | 12.1 µM (active) | 3.88 µM (active) | – | –
O=C(CCN1C(=O)/C(=C/c2cccs2)SC1=S)Nc1ccc(C(=O)O)c(O)c1 | 5.23 µM (active) | 13.3 µM (active) | – | –
CCCCCOP(=O)(OCCCCC)C1(NS(=O)(=O)c2ccccc2)C=CC(=O)c2ccccc21 (stereo not given) | 2.96 µM (active) | 2.69 µM (active) | – | –
CC(C)c1cccc2nc3c(c([Si](C)(C)C)c12)Cn1c-3cccc1=O | – | – | 39.8 µM (inconclusive) | AC50 [7]: 39.8 µM (inconclusive)
Cc1ccccc1CNc1ccc(C(CC(N)=O)NC(=O)c2ccc(Br)cc2)cc1[N+](=O)[O-] (stereo not given) | – | – | – | AC50 [8]: 14.9 µM (active); AC50 [9]: 0.986 µM (active)
O=C(CN1CCN(S(=O)(=O)c2ccc(Cl)cc2)CC1)Nc1ccc2c(c1)OCO2 | 55.9 µM (active) | > 380 µM (inactive) | – | AC50 [10]: 15.8 µM (inconclusive)
Cc1ccc(C2C(C#N)=C(N)Oc3[nH]nc(-c4cccs4)c32)s1 (stereo not given) | 1.54 µM (active) | 1.82 µM (active) | – | –
Oc1ccc(Br)cc1-c1cc(-c2ccc(Cl)cc2)[nH]n1 | – | – | – | AC50 [8]: 4.87 µM (active)
CCNc1ncc2nc(-c3cccs3)c(=O)n(C[C@H]3CCCO3)c2n1 | – | – | 0.2 µM (inconclusive) | AC50 [11]: 7.94 µM (inconclusive)
N#Cc1cccc(NC(=O)N2CCC3(CC2)CCN(C(=O)c2csnn2)CC3)c1 | – | – | 15.8 µM (inconclusive) | AC50 [11]: 20 µM (inconclusive)
O=c1[nH]cc(O)c(=O)[nH]1 | 7.97 µM (active) | 9.27 µM (active) | – | –
O=C1NC(=O)N(c2cccc(F)c2)C(=O)/C1=C/c1c[nH]c2ccccc12 | – | – | – | EC50 [12]: > 300 µM (not active)
COc1ccc(C(C(=O)Nc2ccc(F)cc2)N(C(=O)Cn2nnc3ccccc32)C2CC2)cc1 (stereo not given) | – | – | 28.2 µM (inconclusive) | AC50 [13]: 10 µM (inconclusive)
Cc1cc(C)n(-c2ccc([N+](=O)[O-])cc2)n1 | > 380 µM (inactive) | > 380 µM (inactive) | – | –
COc1ccccc1CNc1ncnc2ccc(-c3c(C)noc3C)cc12 | – | – | 39.8 µM (inconclusive) | AC50 [7]: 0.794 µM (inconclusive); AC50 [13]: 31.6 µM (inconclusive)
COC(=O)c1cc(NS(=O)(=O)c2ccc(N3CCCCCC3)c([N+](=O)[O-])c2)cc(C(=O)OC)c1 | – | – | 12.6 µM (inconclusive) | AC50 [10]: 14.1 µM (inconclusive)
Cc1nc2ccccc2n1CC(=O)N/N=C\C=C\c1ccccc1 | – | – | 35.5 µM (inconclusive) | –
COc1ccc(C(=O)/C=C/c2ccc(O)cc2)cc1 | – | – | – | IC50 [14]: 37 µM (active)

Reference: ChEMBL document CHEMBL1201862, “PubChem BioAssay data set” (2004)
